Results: patent US11612611B2, “Composition and method for treating muscle cramps containing choline alfoscerate as active ingredient” (NANOSTEM CO., LTD., priority 2017, dated 2023)

Legend:
[1] = tested on: patients with muscle cramps; experiment: Pain intensity (11-point PI-NRS) in patients with muscle cramps, one-month test; type: in vivo, human
Description: Patients who experience muscle cramps when stabilized for 3 months without taking exercise were selected as subjects.
The “trigger point injection group (control group)” patients were injected with 5 mL of 0.5% lidocaine at the trigger points (4-5 points), once a week.
(§1) The “choline alfoscerate intravenous administration group (Example 1)” patients were intravenously injected slowly with choline alfoscerate (1 g/4 mL) mixed in 100 mL of physiological saline, twice a week.
(§2) The “choline alfoscerate oral administration group (Example 2)” patients were […] with choline alfoscerate (400 mg/capsule), 3 times a day.
The test period was one month. […] The pain intensity was evaluated according to the 11-point pain intensity numerical rating scale (PI-NRS), where 0=no pain, weakest pain=1 and most severe pain=10. 2-point reduction in the pain intensity was considered clinically significant as reported (Farrar 2001, Rowbotham 2001, Hawker 2011). The pain intensity was measured on the first visit and was compared with the pain intensity 2 weeks (T1) and 4 weeks (T2) after the first drug administration.

[2] = tested on: patients with nocturnal calf cramps; settings: 1-2 mL of 0.25% lidocaine at MTrPs of gastrocnemius muscle; cited from earlier work
[3] = tested on: patients with muscle cramps; experiment: Frequency of muscle cramps for a week in patients with muscle cramps, one-month test; settings: for Frequency of muscle cramps: per week
[4] = tested on: patients with muscle cramps; experiment: Side effects after the treatment in patients with muscle cramps; type: in vivo, human
Description: as §1, §2
Because choline alfoscerate has no effect on the kidney and liver, it is thought that it can be used for people with kidney or liver problems as a therapeutic agent for muscle cramps.

[5] = reported since 1969; cited from earlier work
[6] = trigger point injection (0.5% lidocaine), before drug administration
[7] = trigger point injection, 5 mL 0.5% lidocaine once a week, T1 (first 2 weeks)
[8] = trigger point injection, 5 mL 0.5% lidocaine once a week, T2 (second 2 weeks)
[9] = trigger point injection, 5 mL 0.5% lidocaine once a week, before drug administration (baseline)
[10] = Example 1, intravenous 1 g twice a week, T1 (first 2 weeks)
[11] = Example 1, intravenous 1 g twice a week, T2 (second 2 weeks)
[12] = Example 1, intravenous 1 g twice a week, before drug administration (baseline)
[13] = Example 2, oral 400 mg capsule 3 times a day, T1 (first 2 weeks)
[14] = Example 2, oral 400 mg capsule 3 times a day, T2 (second 2 weeks)
[15] = Example 2, oral 400 mg capsule 3 times a day, before drug administration (baseline)
[16] = intravenous administration group (Example 1), T1
[17] = intravenous administration group (Example 1), T2
[18] = intravenous administration group (Example 1), before drug administration
[19] = oral administration group (Example 2), T1
[20] = oral administration group (Example 2), T2
[21] = oral administration group (Example 2), before drug administration

`CCN(CC)CC(=O)Nc1c(C)cccc1C` [Control group (TPI), lidocaine] gave a pain intensity ([1]; trigger point injection (0.5% lidocaine), 2 weeks after first drug administration (T1)) of 3.74 points, a pain intensity ([1]; trigger point injection (0.5% lidocaine), 4 weeks after first drug administration (T2)) of 2.11 points and a pain intensity [1, 6] of 5.34 points. The pain intensity [1, 7] was 3.74 ± 0.91, the pain intensity [1, 8] was 2.11 ± 0.76 and the pain intensity [1, 9] was 5.34 ± 0.87. For the same molecule, the “frequency of cramps for a week as compared to before the administration” value [2] was “decreased significantly”, the “insomnia severity index (ISI) as compared to before the administration” value [2] was “decreased significantly” and the “intensity of pain as compared to before the administration” value [2] was “decreased significantly”. The “frequency of muscle cramps for a week” value ([3]; trigger point injection (0.5% lidocaine), T1) was 2.00 times, the “frequency of muscle cramps for a week” value ([3]; trigger point injection (0.5% lidocaine), T2) was 1.43 times and the “frequency of muscle cramps for a week” value [3, 6] was 2.84 times. The “Frequency of muscle cramps” value [3, 7] was 2.00 ± 0.68, the “Frequency of muscle cramps” value [3, 8] was 1.43 ± 0.53 and the “Frequency of muscle cramps” value [3, 9] was 2.84 ± 0.99.

For `C[N+](C)(C)CCOP(=O)([O-])OC[C@H](O)CO` [choline alfoscerate], the pain intensity [1, 10] was 2.56 ± 1.49, the pain intensity [1, 11] was 1.32 ± 0.91 and the pain intensity [1, 12] was 6.50 ± 1.26. For the same molecule, the pain intensity [1, 13] was 3.94 ± 1.17, the pain intensity [1, 14] was 1.88 ± 0.92 and the pain intensity [1, 15] was 6.31 ± +0.94. For the same molecule, the “pain intensity as compared to trigger point injection group (control group)” value ([1]; intravenous (Example 1), at both T1 and T2, P < 0.05) was “significant decrease”, the pain intensity [1, 16] was 2.56 points and the pain intensity [1, 17] was 1.32 points. It also gave a pain intensity [1, 18] of 6.50 points, a pain intensity [1, 19] of 3.94 points and a pain intensity [1, 20] of 1.88 points. For the same molecule, the pain intensity [1, 21] was 6.31 points, the “side effect after the treatment” value ([4]; intravenous administration group (Example 1)) was “no side effect” and the “side effect after the treatment” value ([4]; oral administration group (Example 2)) was “no side effect”. For the same molecule, the “Frequency of muscle cramps” value [3, 10] was 1.56 ± 1.34, the “Frequency of muscle cramps” value [3, 11] was 0.88 ± 1.19 and the “Frequency of muscle cramps” value [3, 12] was 4.91 ± 2.40. The “Frequency of muscle cramps” value [3, 13] was 2.67 ± 1.07, the “Frequency of muscle cramps” value [3, 14] was 1.05 ± 0.70 and the “Frequency of muscle cramps” value [3, 15] was 5.25 ± 1.47. The “frequency of muscle cramps for a week as compared to control group” value ([3]; intravenous (Example 1), T1, P < 0.05) was “significant decrease”, the “frequency of muscle cramps as compared to control group” value ([3]; intravenous (Example 1), T2) was “significant decrease” and the “frequency of muscle cramps for a week” value [3, 16] was 1.56 times. The “frequency of muscle cramps for a week” value [3, 17] was 0.88 time, the “frequency of muscle cramps for a week” value [3, 18] was 4.91 times and the “frequency of muscle cramps for a week as compared to control group” value ([3]; oral (Example 2), T1, higher baseline frequency in this group) was “significant increase”. For the same molecule, the “frequency of muscle cramps as compared to control group” value ([3]; oral (Example 2), T2) was “significant decrease”, the “frequency of muscle cramps for a week” value [3, 19] was 2.67 times and the “frequency of muscle cramps for a week” value [3, 20] was 1.05 times. For the same molecule, the “frequency of muscle cramps for a week” value [3, 21] was 5.25 times.

For `C=C[C@H]1C[N@@]2CC[C@H]1C[C@H]2[C@H](O)c1ccnc2ccc(OC)cc12` [quinine], the death reported [5] is given as 93 cases and the “severe side effects reported” value [5] is given as 665 cases.
